{"source": "paper PMC9101869", "about": "“5,2′-Dibromo-2,4′,5′-trihydroxydiphenylmethanone Inhibits LPS-Induced Vascular Inflammation by Targeting the Cav1 Protein” (Molecules, 2022)", "target": "T1, Cav1 (Homo sapiens, UniProt Q03135)", "T1 construct": "commercial human recombinant Cav1 (Cloud-Clone Corp.); biotinylated for BLI", "T1 sequence (Q03135 2-178)": "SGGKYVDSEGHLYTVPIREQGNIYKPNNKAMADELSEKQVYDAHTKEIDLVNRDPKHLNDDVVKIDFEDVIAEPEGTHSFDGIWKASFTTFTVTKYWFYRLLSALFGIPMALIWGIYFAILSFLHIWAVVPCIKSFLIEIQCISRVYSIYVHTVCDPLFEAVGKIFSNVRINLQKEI", "assay": "intrinsic fluorescence quenching, double logarithmic fit", "type": "binding", "conditions": "298 K; Cav1 5.0 × 10^−9 mol/L; excitation 280 nm; n fitted as free exponent; read-out: Kb(L.mol^-1) (converted)", "text": "intrinsic fluorescence quenching, double logarithmic fit on Cav1"}
{"smiles": "O=C(c1cc(Br)ccc1O)c1cc(O)c(O)cc1Br", "note": "[TDD, 5,2′-dibromo-2,4′,5′-trihydroxydiphenylmethanone]", "values": [{"measurement": "Kd", "result": 0.917, "unit": "nM"}]}
